Laboratory results: patent US4581165A, “Anti-diabetic compounds” (Eli Lilly and Company, priority 1984, dated 1986)

Test system: isolated rat adipocytes
Assay: Biological Activity in Isolated Rat Adipocytes (incorporation of 2-3H-glucose in total fat cell lipid)
Assay type: cell-based
Conditions: 2-3H-glucose incorporation in total fat cell lipid, 37° for 1 hr, mean±SEM
Experimental: Adipocytes were prepared from epididymal fat pads by a modification (Huber, supra) of the collagenase digestion procedure of Rodbell, supra. Krebs-Ringer-HEPES (KRH) buffer, pH 7.4, containing 4% bovine serum albumin and 0.55 mM glucose was used in all isolation and incubation steps.
Biological activity was assessed according to the method of Moody, A. J., Stan, M. A., Stan, M., and Glieman, J., Horm. Metab. Res. 6, 12-16 (1974) by monitoring the incorporation of 2-^3 H-glucose in total fat cell lipid. […] Radioactivity was determined in a Searle Isocap 300 liquid scintillation counter at an efficiency of approximately 30%. Blanks were prepared in which the scintillation fluid was added to the vials prior to the addition of cells. The average counts obtained from these vials were subtracted from those observed in all other samples.
Competitive binding curves and biological activity dose-response curves were analyzed using the PREFIT and ALLFIT programs [DeLean, A., Munson, P. J., and Rodbard, D., Am. J. Physiol. 235, E97-E102 (1978)] based on a four-parameter logistic model. These analyses indicated the concentration of insulin or proinsulin necessary to produce a half-maximal response, as well as the maximal and minimal values. All values are presented as the mean±SEM.

Row | Substance | ED50
1 | Human Insulin: human insulin, reference in the binding and activity assays | 5.32 ± 0.7 × 10^-11 M
2 | Human Proinsulin: human proinsulin, starting material and reference; relative potency set to 1 | 1.24 ± 0.2 × 10^-8 M
